{"source": "the supplement of paper PMC10307832", "experiment_in_all_cases": "relative viability (nuclei count vs DMSO), 5 days (fraction); higher = more cells survive", "key": {"COR-L 105": {"tested_on": "COR-L 105", "summary_of_the_method": "(§1)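 Five library-drug doses in √10 steps were combined with a fixed anchor-drug dose, or a single drug was given alone, by pin tool to lung cancer cell lines in 1536-well plates the day after seeding. Nuclei were stained and counted after 5 days. Relative viability is the nuclei count in treated wells over that in vehicle wells, taken as the median of duplicate plates.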"}, "COR-L23": {"tested_on": "COR-L23", "summary_of_the_method": "as §1"}, "EPLC-272H": {"tested_on": "EPLC-272H", "summary_of_the_method": "as §1"}, "H3255": {"tested_on": "H3255", "summary_of_the_method": "as §1"}, "HCC-15": {"tested_on": "HCC-15", "summary_of_the_method": "as §1"}, "HCC-827": {"tested_on": "HCC-827", "summary_of_the_method": "as §1"}, "NCI-H1437": {"tested_on": "NCI-H1437", "summary_of_the_method": "as §1"}, "NCI-H1650": {"tested_on": "NCI-H1650", "summary_of_the_method": "as §1"}, "NCI-H1651": {"tested_on": "NCI-H1651", "summary_of_the_method": "as §1"}, "NCI-H1755": {"tested_on": "NCI-H1755", "summary_of_the_method": "as §1"}, "NCI-H1792": {"tested_on": "NCI-H1792", "summary_of_the_method": "as §1"}, "NCI-H1944": {"tested_on": "NCI-H1944", "summary_of_the_method": "as §1"}, "NCI-H1975": {"tested_on": "NCI-H1975", "summary_of_the_method": "as §1"}, "NCI-H2087": {"tested_on": "NCI-H2087", "summary_of_the_method": "as §1"}, "NCI-H358": {"tested_on": "NCI-H358", "summary_of_the_method": "as §1"}, "NCI-H520": {"tested_on": "NCI-H520", "summary_of_the_method": "as §1"}, "NCI-H647": {"tested_on": "NCI-H647", "summary_of_the_method": "as §1"}, "NCI-H650": {"tested_on": "NCI-H650", "summary_of_the_method": "as §1"}, "NCI-H661": {"tested_on": "NCI-H661", "summary_of_the_method": "as §1"}, "NCI-H727": {"tested_on": "NCI-H727", "summary_of_the_method": "as §1"}}}
{"smiles": "COCC1(CO)C(=O)C2CCN1CC2", "note": "(stereo not given) [PRIMA-1MET] + CS(=O)(=O)CCNCc1ccc(-c2ccc3ncnc(Nc4ccc(OCc5cccc(F)c5)c(Cl)c4)c3c2)o1 [Lapatinib] (partner 2 µM)", "values": [{"measurement": "relative viability", "setting": "COR-L 105; first compound 0.2 µM", "value": 0.45}, {"measurement": "relative viability", "setting": "COR-L 105; first compound 0.6325 µM", "value": 0.33}, {"measurement": "relative viability", "setting": "COR-L 105; first compound 2 µM", "value": 0.312}, {"measurement": "relative viability", "setting": "COR-L 105; first compound 6.325 µM", "value": 0.419}, {"measurement": "relative viability", "setting": "COR-L 105; first compound 20 µM", "value": 0.22}, {"measurement": "relative viability", "setting": "COR-L23; first compound 0.2 µM", "value": 1.11}, {"measurement": "relative viability", "setting": "COR-L23; first compound 0.6325 µM", "value": 0.922}, {"measurement": "relative viability", "setting": "COR-L23; first compound 2 µM", "value": 0.941}, {"measurement": "relative viability", "setting": "COR-L23; first compound 6.325 µM", "value": 1.17}, {"measurement": "relative viability", "setting": "COR-L23; first compound 20 µM", "value": 0.0199}, {"measurement": "relative viability", "setting": "EPLC-272H; first compound 0.2 µM", "value": 0.871}, {"measurement": "relative viability", "setting": "EPLC-272H; first compound 0.6325 µM", "value": 0.767}, {"measurement": "relative viability", "setting": "EPLC-272H; first compound 2 µM", "value": 0.905}, {"measurement": "relative viability", "setting": "EPLC-272H; first compound 6.325 µM", "value": 0.971}, {"measurement": "relative viability", "setting": "EPLC-272H; first compound 20 µM", "value": 0.333}, {"measurement": "relative viability", "setting": "H3255; first compound 0.2 µM", "value": 0.231}, {"measurement": "relative viability", "setting": "H3255; first compound 0.6325 µM", "value": 0.21}, {"measurement": "relative viability", "setting": "H3255; first compound 2 µM", "value": 0.225}, {"measurement": "relative viability", "setting": "H3255; first compound 6.325 µM", "value": 0.237}, {"measurement": "relative viability", "setting": "H3255; first compound 20 µM", "value": 0.195}, {"measurement": "relative viability", "setting": "HCC-15; first compound 0.2 µM", "value": 0.811}, {"measurement": "relative viability", "setting": "HCC-15; first compound 0.6325 µM", "value": 0.743}, {"measurement": "relative viability", "setting": "HCC-15; first compound 2 µM", "value": 0.777}, {"measurement": "relative viability", "setting": "HCC-15; first compound 6.325 µM", "value": 0.853}, {"measurement": "relative viability", "setting": "HCC-15; first compound 20 µM", "value": 0.623}, {"measurement": "relative viability", "setting": "HCC-827; first compound 0.2 µM", "value": 0.22}, {"measurement": "relative viability", "setting": "HCC-827; first compound 0.6325 µM", "value": 0.164}, {"measurement": "relative viability", "setting": "HCC-827; first compound 2 µM", "value": 0.198}, {"measurement": "relative viability", "setting": "HCC-827; first compound 6.325 µM", "value": 0.184}, {"measurement": "relative viability", "setting": "HCC-827; first compound 20 µM", "value": 0.198}, {"measurement": "relative viability", "setting": "NCI-H1437; first compound 0.2 µM", "value": 0.936}, {"measurement": "relative viability", "setting": "NCI-H1437; first compound 0.6325 µM", "value": 0.703}, {"measurement": "relative viability", "setting": "NCI-H1437; first compound 2 µM", "value": 0.765}, {"measurement": "relative viability", "setting": "NCI-H1437; first compound 6.325 µM", "value": 0.82}, {"measurement": "relative viability", "setting": "NCI-H1437; first compound 20 µM", "value": 0.694}, {"measurement": "relative viability", "setting": "NCI-H1650; first compound 0.2 µM", "value": 0.84}, {"measurement": "relative viability", "setting": "NCI-H1650; first compound 0.6325 µM", "value": 0.378}, {"measurement": "relative viability", "setting": "NCI-H1650; first compound 2 µM", "value": 0.426}, {"measurement": "relative viability", "setting": "NCI-H1650; first compound 6.325 µM", "value": 0.647}, {"measurement": "relative viability", "setting": "NCI-H1650; first compound 20 µM", "value": 0.81}, {"measurement": "relative viability", "setting": "NCI-H1651; first compound 0.2 µM", "value": 0.917}, {"measurement": "relative viability", "setting": "NCI-H1651; first compound 0.6325 µM", "value": 0.731}, {"measurement": "relative viability", "setting": "NCI-H1651; first compound 2 µM", "value": 0.659}, {"measurement": "relative viability", "setting": "NCI-H1651; first compound 6.325 µM", "value": 0.839}, {"measurement": "relative viability", "setting": "NCI-H1651; first compound 20 µM", "value": 0.736}, {"measurement": "relative viability", "setting": "NCI-H1755; first compound 0.2 µM", "value": 1.04}, {"measurement": "relative viability", "setting": "NCI-H1755; first compound 0.6325 µM", "value": 0.901}, {"measurement": "relative viability", "setting": "NCI-H1755; first compound 2 µM", "value": 0.846}, {"measurement": "relative viability", "setting": "NCI-H1755; first compound 6.325 µM", "value": 1.03}, {"measurement": "relative viability", "setting": "NCI-H1755; first compound 20 µM", "value": 0.907}, {"measurement": "relative viability", "setting": "NCI-H1792; first compound 0.2 µM", "value": 0.825}, {"measurement": "relative viability", "setting": "NCI-H1792; first compound 0.6325 µM", "value": 0.769}, {"measurement": "relative viability", "setting": "NCI-H1792; first compound 2 µM", "value": 0.868}, {"measurement": "relative viability", "setting": "NCI-H1792; first compound 6.325 µM", "value": 0.963}, {"measurement": "relative viability", "setting": "NCI-H1792; first compound 20 µM", "value": 0.807}, {"measurement": "relative viability", "setting": "NCI-H1944; first compound 0.2 µM", "value": 0.971}, {"measurement": "relative viability", "setting": "NCI-H1944; first compound 0.6325 µM", "value": 0.6}, {"measurement": "relative viability", "setting": "NCI-H1944; first compound 6.325 µM", "value": 0.836}, {"measurement": "relative viability", "setting": "NCI-H1944; first compound 20 µM", "value": 0.823}, {"measurement": "relative viability", "setting": "NCI-H1975; first compound 0.2 µM", "value": 0.988}, {"measurement": "relative viability", "setting": "NCI-H1975; first compound 0.6325 µM", "value": 0.786}, {"measurement": "relative viability", "setting": "NCI-H1975; first compound 2 µM", "value": 0.774}, {"measurement": "relative viability", "setting": "NCI-H1975; first compound 6.325 µM", "value": 0.947}, {"measurement": "relative viability", "setting": "NCI-H1975; first compound 20 µM", "value": 0.816}, {"measurement": "relative viability", "setting": "NCI-H2087; first compound 0.2 µM", "value": 0.848}, {"measurement": "relative viability", "setting": "NCI-H2087; first compound 0.6325 µM", "value": 0.813}, {"measurement": "relative viability", "setting": "NCI-H2087; first compound 2 µM", "value": 0.848}, {"measurement": "relative viability", "setting": "NCI-H2087; first compound 6.325 µM", "value": 1.22}, {"measurement": "relative viability", "setting": "NCI-H2087; first compound 20 µM", "value": 0.919}, {"measurement": "relative viability", "setting": "NCI-H358; first compound 0.2 µM", "value": 0.486}, {"measurement": "relative viability", "setting": "NCI-H358; first compound 0.6325 µM", "value": 0.431}, {"measurement": "relative viability", "setting": "NCI-H358; first compound 6.325 µM", "value": 0.471}, {"measurement": "relative viability", "setting": "NCI-H358; first compound 20 µM", "value": 0.0399}, {"measurement": "relative viability", "setting": "NCI-H520; first compound 0.2 µM", "value": 0.792}, {"measurement": "relative viability", "setting": "NCI-H520; first compound 0.6325 µM", "value": 0.987}, {"measurement": "relative viability", "setting": "NCI-H520; first compound 6.325 µM", "value": 0.828}, {"measurement": "relative viability", "setting": "NCI-H520; first compound 20 µM", "value": 0.0834}, {"measurement": "relative viability", "setting": "NCI-H647; first compound 0.2 µM", "value": 1.29}, {"measurement": "relative viability", "setting": "NCI-H647; first compound 0.6325 µM", "value": 1.09}, {"measurement": "relative viability", "setting": "NCI-H647; first compound 2 µM", "value": 0.759}, {"measurement": "relative viability", "setting": "NCI-H647; first compound 6.325 µM", "value": 1.29}, {"measurement": "relative viability", "setting": "NCI-H647; first compound 20 µM", "value": 0.783}, {"measurement": "relative viability", "setting": "NCI-H650; first compound 0.2 µM", "value": 1.24}, {"measurement": "relative viability", "setting": "NCI-H650; first compound 2 µM", "value": 0.914}, {"measurement": "relative viability", "setting": "NCI-H650; first compound 6.325 µM", "value": 0.871}, {"measurement": "relative viability", "setting": "NCI-H650; first compound 20 µM", "value": 0.0916}, {"measurement": "relative viability", "setting": "NCI-H661; first compound 0.2 µM", "value": 0.531}, {"measurement": "relative viability", "setting": "NCI-H661; first compound 0.6325 µM", "value": 0.467}, {"measurement": "relative viability", "setting": "NCI-H661; first compound 6.325 µM", "value": 0.493}, {"measurement": "relative viability", "setting": "NCI-H661; first compound 20 µM", "value": 0.266}, {"measurement": "relative viability", "setting": "NCI-H727; first compound 0.2 µM", "value": 0.559}, {"measurement": "relative viability", "setting": "NCI-H727; first compound 0.6325 µM", "value": 0.769}, {"measurement": "relative viability", "setting": "NCI-H727; first compound 2 µM", "value": 0.503}, {"measurement": "relative viability", "setting": "NCI-H727; first compound 6.325 µM", "value": 0.624}, {"measurement": "relative viability", "setting": "NCI-H727; first compound 20 µM", "value": 0.113}]}
